Laboratory results reported in patent US9561201B2, “Therapeutic compounds” (Fibrotech Therapeutics Pty Ltd, priority 2006, dated 2017).
Blank lines part the entries; values can stand above or below the compound they belong to.

Key:
[1] = test system: rat mesangial cell line; test: TGF-β stimulated 3H-proline incorporation in mesangial cells (Example 5); type: cell-based; conditions: for Collagen synthesis: inhibition ranked against tranilast (T) or FT11
Procedure: (§1) A well-characterized cloned rat mesangial cell line (gift of D Nikolic-Patterson) is cultured in DMEM with FBS, 100 U/mL penicillin, and 100 ug/mL streptomycin in a humidified 5% CO2 atmosphere at 37° C. Cells are plated into 24-well culture dishes in DMEM/10% FBS at low density and allowed to adhere overnight. Cells are used between passages 20 and 40. The subconfluent cells are starved overnight in DMEM/0.1% FBS containing 150 uM L-ascorbic acid, prior to 4 hours of pre-treatment with or without tranilast or the FT compounds, followed by the addition of 5 ng/mL rhTGF-β11 (R&D Systems) and 1 uCi/mL of L-(2,3,4,5-^3H)-proline. Control wells have the compounds but no TGF-β1 added. Cells are incubated for a further 44 hours during which time their appearance is visually monitored. The cells are then washed three times in ice-cold PBS, twice in ice cold 10% TCA and solubilized in 750 uL 1M NaOH for 45 minutes at 37° C. or overnight at 4° C. A 500 uL aliquot is neutralized with 500 uL 1M HCl and 10 mL scintillation fluid (Instagel Plus-Perkin-Elmer) added. Counts are performed on a beta counter.
To normalize the proline incorporation counts to take into account the proliferative effects of TGF-β1, a BioRad protein assay is performed on a 100-150 uL aliquot of the remaining solubilized cells. The sample is neutralized with an equal amount of 1M HCl prior to the assay. The BSA standards used to construct the standard curve have the same amount of 1M NaOH and 1M HCl added as is present in the samples for assay.
Proline incorporation is expressed as cpm/ug protein. In order to compare inter-assay results, the incorporation is expressed as percentage reduction of TGF stimulated proline incorporation, where TGF alone gives 0% reduction and the zero control gives 100% reduction.

[2] = test system: rat mesangial cell line; test: Effect on mesangial cell appearance (visual monitoring during proline assay); type: cell-based
Procedure: as §1
Compounds in Bold have Minimal Effect on Cell Appearance and Viability

[3] = test system: Mesangial cells; test: Mesangial cell MTT assay with TGF-β; type: cell-based, rat; conditions: suppressed = reduced cell viability
Procedure: Mesangial cells are plated at 15000 cells per well into 96-well culture dishes in DMEM/10% FBS and allowed to adhere overnight. The subconfluent cells are starved overnight in DMEM/0.1% FBS, prior to 4 hours of pre-treatment with or without tranilast or the FT compounds. Following the addition of 5 ng/mL rhTGF-β1, the cells are incubated in a humidified 5% CO2 atmosphere at 37° C. for 44 hours. Control wells have the compounds but no TGF-β1 added. The culture medium is removed from each well and 100 uL MTT (0.5 mg/mL) in starve medium is added to each well. The plates are incubated for a further 4 hours at 37° C. The culture medium is then removed and replaced with 100 μL isopropanol and incubated at 37° C. for 20 to 30 minutes, until the blue formazan crystals have dissolved. The absorbance is measured at a wavelength of 570 nm with background subtraction of 690 nm.
Suppressed MTT Result Indicates Reduced Cell Viability

[4] = Rattus norvegicus, Mesangial cell, 5 ng/mL TGF-β1, 44 h, read-out: Mesangial Cell Assay TGF-β % reduction of TGF-β stimulation_proline inc.

SMILES: COc1ccc(/C=C/C(=O)Nc2ccc(Br)cc2C(=O)O)cc1OC [Analogue 16, (E)-2-[[3-(3,4-Dimethoxyphenyl)-1-oxo-2-propenyl]amino]-5-bromobenzoic acid]
inhibition at 3 µM [1, 4]: ~20%
inhibition at 10 µM [1, 4]: ~50%
Collagen synthesis [1]: >>FT11
Effect on mesangial cell appearance ([2]; @ 10 μM): lifting off
Mesangial cell MTT Assay TGF-β ([3]; @ 30 μM): Suppressed
melting point: 210 to 213 °C

SMILES: CCC#CCOc1ccc(/C=C/C(=O)Nc2ccccc2C(=O)O)cc1OC [Analogue 18, (E)-2-[[3-(3-Methoxy-4-(pent-2-ynyloxy)phenyl)-1-oxo-2-propenyl]amino]benzoic acid]
inhibition at 3 µM [1, 4]: ~55%
inhibition at 10 µM [1, 4]: ~70%
Collagen synthesis [1]: >>FT11
Effect on mesangial cell appearance ([2]; @ 30 μM): lifting off
melting point: 185.5 to 186.5 °C

SMILES: COc1ccc(/C=C/C(=O)Nc2ccccc2C(=O)O)cc1OCc1cn(CC(=O)Nc2ccccc2)nn1 [Analogue 21, (E)-2-[[3-(4-Methoxy-3-((1-(2-oxo-2-(phenylamino)ethyl)-1H-1,2,3-triazol-4-yl)methoxy)phenyl)-1-oxo-2-propenyl]amino]benzoic acid]
inhibition at 10 µM [1, 4]: ~20%
inhibition at 30 µM [1, 4]: ~65%
Collagen synthesis [1]: =FT11
Effect on mesangial cell appearance ([2]; @ 100 μM): necrotic
Mesangial cell MTT Assay TGF-β ([3]; @ 30 μM): Suppressed

SMILES: COc1cc(/C=C/C(=O)Nc2ccccc2C(=O)O)ccc1OC1CCCCC1 [Analogue 27, (E)-2-{[3-(4-Cyclohexyloxy-3-methoxyphenyl)-1-oxo-2-propenyl]amino}benzoic acid]
inhibition at 1 µM [1, 4]: ~18%
inhibition at 3 µM [1, 4]: 40%
inhibition at 10 µM [1, 4]: 75 to 90%
Collagen synthesis [1]: >FT11
Effect on mesangial cell appearance ([2]; @ 10 μM): Sparse @
Effect on mesangial cell appearance ([2]; @ 30 μM): sick @ 30 μM
Effect on mesangial cell appearance ([2]; @ 100 μM): lifting off
Mesangial cell MTT Assay TGF-β ([3]; @ 30 μM): Suppressed
melting point: 90 to 92 °C

SMILES: COc1cc(/C=C/C(=O)Nc2ccccc2C(=O)O)ccc1OCC1CCCCC1 [Analogue 28, (E)-2-{[3-(4-Cyclohexylmethoxy-3-methoxyphenyl)-1-oxo-2-propenyl]amino}benzoic acid]
inhibition at 10 µM [1, 4]: ~40%
inhibition at 30 µM [1, 4]: 173%
Collagen synthesis [1]: <FT11
Effect on mesangial cell appearance ([2]; @ 30 μM): Stressed @
Effect on mesangial cell appearance ([2]; @ 100 μM): Dead @
Mesangial cell MTT Assay TGF-β ([3]; @ 10 μM): deadly ®
melting point: 207 to 210 °C

SMILES: CCCCC#CCCOc1ccc(/C=C/C(=O)Nc2ccccc2C(=O)O)cc1OC [Analogue 41, (E)-2-[[3-(3-Methoxy-4-(oct-3-ynyloxy)phenyl)-1-oxo-2-propenyl]amino]benzoic acid]
Collagen synthesis [1]: Toxic
Effect on mesangial cell appearance ([2]; @ all concentrations): Cells damaged @
melting point: 169 to 170 °C

SMILES: CCC(CC)Oc1ccc(/C=C/C(=O)Nc2ccccc2C(=O)O)cc1OC [Analogue 45, (E)-2-[[3-(3-Methoxy-4-(pent-3-yloxy)phenyl)-1-oxo-2-propenyl]amino]benzoic acid]
inhibition at 10 µM [1, 4]: 80%
inhibition at 30 µM [1, 4]: 142%
Collagen synthesis [1]: >FT11
Effect on mesangial cell appearance ([2]; @ 100 μM): Cells damaged
melting point: 82 to 85 °C

Second part, led by results:

Effect on mesangial cell appearance ([2]; @ 100 μM): stress @
melting point: 170 to 171 °C
SMILES: CC#CCOc1cc(/C=C/C(=O)Nc2ccccc2C(=O)O)ccc1OC [Analogue 23, (E)-2-{[3-(3-(But-2-ynyloxy)-4-methoxyphenyl)-1-oxo-2-propenyl]amino}benzoic acid]
inhibition at 3 µM [1, 4]: ~12%
inhibition at 10 µM [1, 4]: 30 to 60%
inhibition at 30 µM [1, 4]: 70 to 80%
inhibition at 100 µM ([1]; Rattus norvegicus, Mesangial cell, @ 100 μM, 5 ng/mL TGF-β1, 44 h, read-out: Mesangial Cell Assay TGF-β % reduction of TGF-β stimulation_proline inc.): ~80%
Collagen synthesis [1]: >=FT11

Effect on mesangial cell appearance ([2]; @ 30 μM): Looking bad
melting point: 148 to 150 °C
SMILES: C#CCCCCOc1ccc(/C=C/C(=O)Nc2ccccc2C(=O)O)cc1OC [Analogue 33, (E)-2-[[3-(4-(Hex-5-ynyloxy)-3-methoxyphenyl)-1-oxo-2-propenyl]amino]benzoic acid]
inhibition at 1 µM [1, 4]: ~15%
inhibition at 3 µM [1, 4]: 40%
inhibition at 10 µM [1, 4]: 60%
inhibition at 30 µM [1, 4]: 80%
Collagen synthesis [1]: >FT11
Mesangial cell MTT Assay TGF-β ([3]; @ 10 μM): Severely

Effect on mesangial cell appearance ([2]; @ 30 μM): Looking bad
melting point: 135 to 137 °C
SMILES: C#CCCCCOc1cc(/C=C/C(=O)Nc2ccccc2C(=O)O)ccc1OC [Analogue 34, (E)-2-[[3-(3-(Hex-5-ynyloxy)-4-methoxyphenyl)-1-oxo-2-propenyl]amino]benzoic acid]
inhibition at 10 µM [1, 4]: ~80%
inhibition at 30 µM [1, 4]: 94%
Collagen synthesis [1]: >FT11
Mesangial cell MTT Assay TGF-β ([3]; @ 30 μM): Suppressed

Effect on mesangial cell appearance ([2]; @ 30 μM): Looking bad
melting point: 166.5 to 167.5 °C
SMILES: C#CCCCOc1ccc(/C=C/C(=O)Nc2ccccc2C(=O)O)cc1OC [Analogue 35, (E)-2-[[3-(3-Methoxy-4-(pent-4-ynyloxy)phenyl)-1-oxo-2-propenyl]amino]benzoic acid]
inhibition at 3 µM [1, 4]: ~25%
inhibition at 10 µM [1, 4]: 50%
inhibition at 30 µM [1, 4]: 60 to 100%
Collagen synthesis [1]: =>FT11
Mesangial cell MTT Assay TGF-β ([3]; @ 10 μM): Suppressed

melting point: 154 to 156 °C
SMILES: C#CCCCOc1cc(/C=C/C(=O)Nc2ccccc2C(=O)O)ccc1OC [Analogue 36, (E)-2-[[3-(4-Methoxy-3-(pent-4-ynyloxy)phenyl)-1-oxo-2-propenyl]amino]benzoic acid]
inhibition at 10 µM [1, 4]: ~50%
inhibition at 30 µM [1, 4]: 80%
Collagen synthesis [1]: =>FT11
Mesangial cell MTT Assay TGF-β ([3]; @ 30 μM): Severely

melting point: 178 to 180 °C
SMILES: C#CCCOc1ccc(/C=C/C(=O)Nc2ccccc2C(=O)O)cc1OC [Analogue 37, (E)-2-[[3-(4-(But-3-ynyloxy)-3-methoxyphenyl)-1-oxo-2-propenyl]amino]benzoic acid]
inhibition at 10 µM [1, 4]: ~50%
inhibition at 30 µM [1, 4]: 70%
Collagen synthesis [1]: =FT11
Effect on mesangial cell appearance ([2]; @ 100 μM): Some death

melting point: 197 to 198 °C
SMILES: C#CCCOc1cc(/C=C/C(=O)Nc2ccccc2C(=O)O)ccc1OC [Analogue 38, (E)-2-[[3-(3-(But-3-ynyloxy)-4-methoxyphenyl)-1-oxo-2-propenyl]amino]benzoic acid]
inhibition at 10 µM [1, 4]: ~40%
inhibition at 30 µM [1, 4]: 65%
Collagen synthesis [1]: =FT11
Effect on mesangial cell appearance ([2]; @ 100 μM): Some death

Effect on mesangial cell appearance ([2]; @ 30 μM): Looking bad
melting point: 165 to 166 °C
SMILES: CCC#CCCOc1ccc(/C=C/C(=O)Nc2ccccc2C(=O)O)cc1OC [Analogue 39, (E)-2-[[3-(4-(Hex-3-ynyloxy)-3-methoxyphenyl)-1-oxo-2-propenyl]amino]benzoic acid]
inhibition at 10 µM [1, 4]: ~70%
inhibition at 30 µM [1, 4]: 100%
Collagen synthesis [1]: >FT11

Effect on mesangial cell appearance ([2]; @ 100 μM): dead
melting point: 163 to 165 °C
SMILES: CCC#CCCOc1cc(/C=C/C(=O)Nc2ccccc2C(=O)O)ccc1OC [Analogue 40, (E)-2-[[3-(3-(Hex-3-ynyloxy)-4-methoxyphenyl)-1-oxo-2-propenyl]amino]benzoic acid]
inhibition at 10 µM [1, 4]: ~70%
inhibition at 30 µM [1, 4]: 100%
Collagen synthesis [1]: >FT11

melting point: 157 to 158 °C
SMILES: CCCCC#CCCOc1cc(/C=C/C(=O)Nc2ccccc2C(=O)O)ccc1OC [Analogue 42, (E)-2-[[3-(4-Methoxy-3-(oct-3-ynyloxy)phenyl)-1-oxo-2-propenyl]amino]benzoic acid]
Collagen synthesis [1]: Toxic
Effect on mesangial cell appearance ([2]; @ all concentrations): Cells damaged @
